# What was measured:
# [1] = system: AKI mice; experiment: tubular injury / renal injury of AKI mice (HE histology); assay type: in vivo, mouse
# Description: (§1) LPS (Sigma, Cat#L2630) was dissolved in PBS to 2.5 mg/mL for one-time intraperitoneal 25 mg/kg injection; deoxyribonuclease I (DNase I, Sigma, Cat#SLBV1446) was dissolved in PBS to 1 mg/mL and injected intraperitoneally at a dose of 10 mg/kg at 4 h before cisplatin or AA I injection and every 24 h after injection. Disulfiram (MedChemExpress, CAS:97-77-8) was diluted in corn oil to 12.5 mg/mL and injected 50 mg/kg intraperitoneally every 24 h after cisplatin or AA I administration. Cu(II) (Sigma, Cat#344419) was dissolved in PBS to 30 µg/mL and administered intraperitoneally 6 h before disulfiram at a dose of 0.15 mg/kg; TNF-α (Peprotech, Cat#315-01 A) was dissolved in PBS to 10 µg/mL and injected at 100 µg/kg once through the caudal vein 24 h before cisplatin injection. […] MCC950 (MedChem Express, CAS:256373-96-3) was dissolved in PBS to 5 mg/mL and injected intraperitoneally at a dose of 50 mg/kg 12 h before cisplatin or AA I injection and every 12 h after injection; berberine (APExBIO, Cat#N1368) was dissolved in PBS to 5 mg/mL and 5 mg/kg injected intraperitoneally at 36, 24 and 12 h before cisplatin; […] To supervise the effects of various treatments on survival time and rate, the mice were observed, and survival curves were generated. To investigate the specific mechanisms, whole blood was retrieved from the orbit, serum was separated through centrifugation on the 4th day, and the mice were then sacrificed by cervical dislocation. Mice were randomly assigned in experiments, while there was no blinding during the animal experiments. Renal function was evaluated based on serum creatinine level and histological features. Serum creatinine was determined in the Clinical Pharmacology Lab, Clinical Trial Center, WCH, SCU. The kidneys were extracted from euthanized mice, immediately fixed with 4% paraformaldehyde, and embedded in paraffin. Furthermore, the samples were cut into 5 µm thick sections. These tissue samples were subjected to hematoxylin-eosin (HE) and […] according to standard protocols with HE reagent (Biosharp, Cat#BL702B, BL703B) and Masson reagent (Servicebio, Cat#G1006-100ML). The pathological changes were detected through optical microscopy, and the tubulointerstitial injury score was determined as previously reported.
# [2] = system: AKI mice; experiment: serum creatinine of AKI mice; assay type: in vivo, mouse
# Description: as §1
# [3] = system: AKI mice; experiment: overall therapeutic effect in AKI mice; assay type: in vivo, mouse; details: TNF-α vs Anc80L65 (A20 overexpression)
# Description: (§2) Aristolochic acid I sodium salt was dissolved in PBS to 1 mg/mL and injected intraperitoneally at a dose of 10 mg/kg (body weight) every 24 h for 3 days; cisplatin was dissolved in PBS to 1.5 mg/mL for one-time intraperitoneal 25 mg/kg injection; LPS (Sigma, Cat#L2630) was dissolved in PBS to 2.5 mg/mL for one-time intraperitoneal 25 mg/kg injection; deoxyribonuclease I (DNase I, Sigma, Cat#SLBV1446) was dissolved in PBS to 1 mg/mL and injected intraperitoneally at a dose of 10 mg/kg at 4 h before cisplatin or AA I injection and every 24 h after injection. Disulfiram (MedChemExpress, CAS:97-77-8) was diluted in corn oil to 12.5 mg/mL and injected 50 mg/kg intraperitoneally every 24 h after cisplatin or AA I administration. Cu(II) (Sigma, Cat#344419) was dissolved in PBS to 30 µg/mL and administered intraperitoneally 6 h before disulfiram at a dose of 0.15 mg/kg; TNF-α (Peprotech, Cat#315-01 A) was dissolved in PBS to 10 µg/mL and injected at 100 µg/kg once through the caudal vein 24 h before cisplatin injection. Metformin (Sigma, Cat#D150959) was dissolved in PBS to 5 mg/mL and injected intraperitoneally at a dose of 50 mg/kg 24 h before cisplatin or AA I injection and every 24 h after injection. MCC950 (MedChem Express, CAS:256373-96-3) was dissolved in PBS to 5 mg/mL and injected intraperitoneally at a dose of 50 mg/kg 12 h before cisplatin or AA I injection and every 12 h after injection; berberine (APExBIO, Cat#N1368) was dissolved in PBS to 5 mg/mL and 5 mg/kg injected intraperitoneally at 36, 24 and 12 h before cisplatin; A20-derived-peptide was dissolved in ddH2O to 3 mg/mL and injected intraperitoneally at a dose of 15 mg/kg 1 h before cisplatin. To supervise the effects of various treatments on survival time and rate, the mice were observed, and survival curves were generated. To investigate the specific mechanisms, whole blood was retrieved from the orbit, serum was separated through centrifugation on the 4th day, and the mice were then sacrificed by cervical dislocation. Mice were randomly assigned in experiments, while there was no blinding during the animal experiments.
# [4] = system: BMDMs; experiment: pyroptotic induction of BMDMs by ox-DNA or LPS plus ATP (immunoblot of GSDMD); assay type: cell-based, mouse; details: BMDMs pretreated with low-dose TNF-α before ox-dsDNA90 or LPS plus ATP; Fig. 6l
# Description: Primary bone marrow-derived macrophages (BMDMs) were isolated from 6- to 8-week-old C57BL/6J male mice. The mice were sacrificed and soaked in 75% alcohol for 1–2 min. The femurs and tibias were removed and immersed in PBS containing 500 U/mL penicillin and […] streptomycin for 3 min. The marrow cavities were repeatedly rinsed with DMEM using a sterile 1 mL syringe. The cell suspension was collected and centrifuged at 300 × g for 10 min, and the supernatant was discarded. The cell pellet was resuspended in 5 mL red cell lysis buffer (Bio Sharp, Cat#BL503A) on ice for 5 min, followed by centrifugation, and the supernatant was removed. The cells were then resuspended in DMEM complete culture medium supplemented with 10% FBS and 30% L929 cell-conditioned medium as an induction factor.[51] Half of the medium was changed every other day for 5–7 days. The suspended cells were removed, and the adherent BMDMs were digested with trypsin and plated on a six-well plate at a density of 1 × 10^6 cells/well. […]
# (§3) Prepared protein samples were subjected to 6-15% SDS polyacrylamide gels and separated according to the protein concentrations. […] The protein bands were detected with an enhanced chemiluminescence kit (Millipore, Cat#WBKLS0500) using a gel imaging system (Bio-Rad, USA) for visualization and standardization of the amount of protein loaded. α-Tubulin was used as the internal control.
# [5] = system: AKI mice; experiment: survival of AKI mice; assay type: in vivo, mouse; details: n = 10 per group
# Description: as §2
# [6] = system: NEK7; experiment: NEK7 expression in iBMDMs (immunoblot); assay type: cell-based, mouse; details: LPS plus metformin 0, 1, 2 or 5 mM, Fig. 9a
# Description: For immunoblot analysis of kidney tissue, total protein lysates were prepared from renal tissue, which was ground in liquid nitrogen and then added to lysis buffer in a Total Protein Extraction Kit (Signalway Antibody, Cat#PE001). Samples were centrifuged at 12,000 rpm for 15 min at 4 °C, and the supernatant was collected immediately. For immunoblot analysis of cells, cultured cells after treatment were lysed with lysis buffer, which was premixed with protease and phosphatase inhibitors (Signalway Antibody, Cat#PE001). The samples were centrifuged at 12,000 r/min for 15 min at 4 °C, and the supernatant was collected immediately. Ultimately, both types of protein samples were then mixed with 4× Laemmli loading buffer (Bio-Rad, Cat#1610747) and denatured by boiling at 95 °C for 5 min.
# as §3, with “concentrations. Then, the protein bands were transferred to polyvinylidene difluoride (PVDF) membranes by a wet transfer apparatus (Bio-Rad, USA).” for “concentrations.”
# [7] = system: NEK7; details: low dose; cited from earlier work
# Description: Furthermore, we investigated the potential therapeutic medicines targeting to NEK7 and evaluated their effects on alleviating AKI. […] A ...
# [8] = system: AKI mice; experiment: renal fibrosis of AKI mice (Masson staining); assay type: in vivo, mouse; details: Cis mice; metformin 50 mg/kg i.p. 24 h before and every 24 h after; n = 5
# Description: LPS (Sigma, Cat#L2630) was dissolved in PBS to 2.5 mg/mL for one-time intraperitoneal 25 mg/kg injection; deoxyribonuclease I (DNase I, Sigma, Cat#SLBV1446) was dissolved in PBS to 1 mg/mL and injected intraperitoneally at a dose of 10 mg/kg at 4 h before cisplatin or AA I injection and every 24 h after injection. Disulfiram (MedChemExpress, CAS:97-77-8) was diluted in corn oil to 12.5 mg/mL and injected 50 mg/kg intraperitoneally every 24 h after cisplatin or AA I administration. Cu(II) (Sigma, Cat#344419) was dissolved in PBS to 30 µg/mL and administered intraperitoneally 6 h before disulfiram at a dose of 0.15 mg/kg; TNF-α (Peprotech, Cat#315-01 A) was dissolved in PBS to 10 µg/mL and injected at 100 µg/kg once through the caudal vein 24 h before cisplatin injection. […] Renal function was evaluated based on serum creatinine level and histological features. Serum creatinine was determined in the Clinical Pharmacology Lab, Clinical Trial Center, WCH, SCU. […] The pathological changes were detected through optical microscopy, and the tubulointerstitial injury score was determined as previously reported.
# [9] = system: NEK7; experiment: NEK7 expression in renal tissue of mice (immunoblot); assay type: in vivo, mouse; details: Cis mice, metformin 50 mg/kg i.p., Fig. 9b
# Description: For immunoblot analysis of kidney tissue, total protein lysates were prepared from renal tissue, which was ground in liquid nitrogen and then added to lysis buffer in a Total Protein Extraction Kit (Signalway Antibody, Cat#PE001). Samples were centrifuged at 12,000 rpm for 15 min at 4 °C, and the supernatant was collected immediately. […] Ultimately, both types of protein samples were then mixed with 4× Laemmli loading buffer (Bio-Rad, Cat#1610747) and denatured by boiling at 95 °C for 5 min.
# Prepared protein samples were subjected to 6-15% SDS polyacrylamide gels and separated according to the protein concentrations. Then, the protein bands were transferred to polyvinylidene difluoride (PVDF) membranes by a wet transfer apparatus (Bio-Rad, USA). […] The protein bands were detected with an enhanced chemiluminescence kit (Millipore, Cat#WBKLS0500) using a gel imaging system (Bio-Rad, USA) for visualization and standardization of the amount of protein loaded. α-Tubulin was used as the internal control. […]
# [10] = system: patients; details: first course of cisplatin treatment; cited from earlier work
# Description: Acute kidney injury (AKI) is a life-threatening condition characterized by a rapid loss of renal function, leading to high mortality and morbidity.[1],[2] Approximately 13% of patients received the first course of cisplatin treatment developed AKI.[2],[3] Despite various initial triggers, the pathophysiology of AKI often involves common pathogenic denominators, such as cell death, tissue injury, and drastic inflammation.[4] Several types of cell death have been recently described in AKI, and multiple strategies targeting cell death have been reported to help mitigate the progression of AKI.[5] ...
# [11] = Cis or AA I mice, TNF-α 100 µg/kg pre-injection
# [12] = Cis mice, metformin 50 mg/kg i.p. 24 h before and every 24 h after
molecule,measurement,setting,value
TNF-α,tubular injury (in words),[1]; [11],alleviated serum creatinine and tubular injury
same,serum creatinine (in words),[2]; [11],alleviated serum creatinine
same,alleviation of AKI compared with Anc80L65,[3],more efficient in alleviating AKI
same,resistance of BMDMs to pyroptotic induction,[4],more resistant to pyroptotic induction
same,survival,"[5]; Cis or AA I mice, TNF-α 100 µg/kg once through the caudal vein 24 h before",extended overall survival benefit
"CN(C)C(=N)N=C(N)N [metformin, Metformin]",tubular injury (in words),[1]; [12],"markedly ameliorated cisplatin-induced serum creatines, tubular injury"
same,serum creatinine (in words),[2]; [12],markedly ameliorated cisplatin-induced serum creatines
same,NEK7 expression in vitro,[6],downregulates NEK7
same,NEK7 expression (literature),[7],limit the expression of NEK7 to alleviate inflammation
same,renal fibrosis,[8],"markedly ameliorated cisplatin-induced serum creatines, tubular injury, renal fibrosis"
same,NEK7 expression in vivo,[9],downregulates NEK7
same,survival,[5]; [12],longer survival time and better survival rate
N.N.[Cl][Pt][Cl] [cisplatin],patients developing AKI after first course of treatment,[10],Approximately 13%
